Structures can show the parent of a compound that is named as a salt.

Series [1] has as its system T cells in rVSV-ΔG-mCherry-infected PBMCs. The series is classed as cell-based, human.
The test system is the same in series [2]. Put plainly: On-age and off-age scores from T-cell image embeddings. Format: cell-based, human. The conditions noted are these: T cells from older donors vs untreated controls.
Series [3] shares this test system. Format: cell-based, human. This is another data set of the same source.
Series [4] concerns rVSV-ΔG-mCherry-infected PBMCs from older donors. Format: cell-based, human.
For series [5], the system named is rVSV-ΔG-mCherry-infected PBMCs.
For series [6], the system named is rVSV-infected PBMCs from older donors. The series is classed as cell-based, human.
Another series concerns late stage COVID-19. As to conditions: cited from earlier work.

For `CC(C)[C@]12O[C@H]1[C@@H]1O[C@@]13[C@@]1(C)CCC4=C(COC4=O)[C@@H]1C[C@@H]1O[C@@]13C2=O` [Triptonide], the “percentage of reticular T-cell mitochondria” value in series [1] is given as “dose-dependent decrease”. Also, in series [2], the “off-age effects (change orthogonal to age distances)” value was “significant” and the “on-age score (distance from young controls)” value is on record as “significantly shifted”. In addition, in series [3], the “T-cell age score / aging model readout vs old untreated controls” value is “from an older phenotype to a younger phenotype”. For the same molecule, in series [4], the “IL-1β level vs old untreated control PBMCs” value is given as “significant differences at one or more doses”; the “MCP1 level vs old untreated control PBMCs” value is reported as “significant, dose-dependent reduction”; the “TNFα level vs old untreated control PBMCs” value is “significant differences at one or more doses”. In addition, in series [5], the “less T cells relative to vehicle-only controls” value was 19%; the “more dead and infected monocytes relative to vehicle-only controls” value is on record as 21%; the “percentage of T cells” value is “decrease”; the “percentage of dead cells and infected monocytes” value is listed as “significant increase”. The “outcome of screen ranked by immune aging score and COVID-19 cytokine score” value in series [6] is reported as “identified as a therapy with potential for rejuvenating the aging immune system”.

For `COC(=O)/C=C/C(=O)OC` [dimethyl fumarate, reference compound], in series [2], the “on-age score (distance from young controls)” value is recorded as “did not improve”.

Turning to “Tocilizumab: IL-6 targeting therapy tested in late stage COVID-19”, the “patients who lowered their oxygen intake” value in the series on late stage COVID-19 (15 of 20 late stage COVID-19 patients) is 75.0%. Besides, the “patients with lung lesion opacity absorbed on CT scans” value in the series with late stage COVID-19 (19 patients) is recorded as 90.5%. For the same molecule, the fever after treatment entry in the series on late stage COVID-19 (within a few days after treatment) is “returned to normal”.

Values taken from patent US20230026789A1, “METHODS, SYSTEMS, AND TOOLS FOR LONGEVITY-RELATED APPLICATIONS” (SPRING DISCOVERY, INC., priority 2020, published 2023).
